Source: patent US12006283B2, “HIF-1α inhibitor, preparation method therefor, and pharmaceutical composition for preventing or treating angiogenesis-associated eye disease, containing same as active ingredient” (SEOUL NATIONAL UNIVERSITY R&DB FOUNDATION, priority 2018, dated 2024)

Legend:
[1] = target: T1, HIF-1α (hypoxia-inducible factor 1α) (Homo sapiens, UniProt Q16665); test: Evaluation of HIF-1α inhibitory activity (in vitro); format: cell-based; details: for IC50: HIF-1α inhibitory activity
T1 sequence (Q16665 whole entry, looked up): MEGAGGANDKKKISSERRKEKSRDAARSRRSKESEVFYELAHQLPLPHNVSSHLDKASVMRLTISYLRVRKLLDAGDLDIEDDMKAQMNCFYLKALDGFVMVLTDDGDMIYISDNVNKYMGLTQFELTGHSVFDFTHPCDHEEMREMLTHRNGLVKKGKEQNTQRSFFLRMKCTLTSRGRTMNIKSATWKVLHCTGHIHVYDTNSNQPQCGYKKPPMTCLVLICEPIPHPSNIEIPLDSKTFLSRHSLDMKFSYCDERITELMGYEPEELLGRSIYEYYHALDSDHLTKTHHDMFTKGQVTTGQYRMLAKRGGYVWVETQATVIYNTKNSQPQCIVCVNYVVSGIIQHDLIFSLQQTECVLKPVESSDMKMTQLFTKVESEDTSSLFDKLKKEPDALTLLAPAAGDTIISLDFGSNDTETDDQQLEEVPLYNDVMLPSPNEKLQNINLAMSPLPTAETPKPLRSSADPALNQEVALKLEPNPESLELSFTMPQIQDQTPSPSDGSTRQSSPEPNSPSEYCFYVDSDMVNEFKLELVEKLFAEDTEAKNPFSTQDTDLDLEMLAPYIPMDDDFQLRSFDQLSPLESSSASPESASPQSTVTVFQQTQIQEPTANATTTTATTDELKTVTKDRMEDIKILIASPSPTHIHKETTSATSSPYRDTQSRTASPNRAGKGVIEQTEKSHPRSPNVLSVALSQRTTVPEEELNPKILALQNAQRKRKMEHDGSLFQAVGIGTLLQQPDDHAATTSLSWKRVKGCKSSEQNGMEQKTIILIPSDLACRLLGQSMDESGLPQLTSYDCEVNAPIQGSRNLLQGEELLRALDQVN
Method: <Experimental Example 1> Evaluation of HIF-La Inhibitory Activity (In Vitro) The following experiment was performed in order to evaluate inhibitory activity against HIF-1α (hypoxia-inducible factor 1α) of the compound of Example according to an embodiment of the present invention.

[2] = test system: retinal neovascularization by hypoxia; test: Evaluation of inhibitory activity against retinal neovascularization by hypoxia; format: in vivo; details: FIG. 3; compared with Comparative Example 1
Method: <Experimental Example 4> Evaluation of Inhibitory Activity Against Retinal Neovascularization by Hypoxia
The following experiment was performed in order to evaluate inhibitory activity against retinal neovascularization by hypoxia of the compound of Example according to an embodiment of the present invention.
FIG. 3 is a graph showing the results of analysis of the inhibitory activity against retinal neovascularization by hypoxia of the compound of Example according to an embodiment of the present invention, wherein compound 2 is a compound of Comparative Example 1, and compound 34f is a compound of Example 10.

angiogenesis = test: Evaluation of inhibitory activity against angiogenesis (in vitro); format: cell-based; details: FIG. 1, compared with Comparative Example 1
Method: <Experimental Example 2> Evaluation of Inhibitory Activity Against Angiogenesis (In Vitro)
The following experiment was performed in order to evaluate inhibitory activity against angiogenesis of the compound of Example according to an embodiment of the present invention.
(§1) FIG. 1 is a graph showing the results of analysis of inhibitory activity against angiogenesis of the compound of Example according to an embodiment of the present invention, wherein compound 2 is a compound of Comparative Example 1, and compound 34f is a compound of Example 10.

[3] = target: T1, HIF-1α (hypoxia-inducible factor 1α); test: Evaluation of HIF-1α regulatory activity (in vitro); format: cell-based; details: FIG. 2, compared with Comparative Example 1
Method: <Experimental Example 3> Evaluation of HIF-1α Regulatory Activity (In Vitro)
The following experiment was performed in order to evaluate regulatory activity of HIF-1α (hypoxia-inducible factor 1α) of the compound of Example according to an embodiment of the present invention.
as §1, with “FIG. 2” for “FIG. 1”, “of the regulatory” for “of inhibitory”, “activity of HIF-1α (hypoxia-inducible factor 1α)” for “activity against angiogenesis”

COc1ccc(C(C)C(=O)c2ccc(N3CCCC3)cc2OC)cc1OC (stereo not shown) [Example 6, 2-(3,4-dimethoxyphenyl)-1-(2-methoxy-4-(pyrrolidin-1-yl)phenyl)propan-1-one]
IC50 [1]: 2.82 µM

COc1ccc(C(C)C(=O)c2ccc(N3CCOCC3)cc2)cc1OC (stereo not shown) [Example 12, 2-(3,4-dimethoxyphenyl)-1-(4-morpholinophenyl)propan-1-one]
IC50 [1]: 6.85 µM

COc1ccc(C(C)C(=O)c2ccc(N3CCOCC3)cc2OC)cc1OC (stereo not shown) [Example 8, 2-(3,4-dimethoxyphenyl)-1-(2-methoxy-4-morpholinophenyl)propan-1-one]
IC50 [1]: 8.74 µM

COc1ccc(C(C)C(=O)c2ccc(NCc3ccccc3)cc2OC)cc1OC (stereo not shown) [Example 9, 1-(4-(benzylamino)-2-methoxyphenyl)-2-(3,4-dimethoxyphenyl)propan-1-one]
IC50 [1]: 1.43 µM

COc1ccc(C(C)C(=O)c2ccc(N3CCCCC3)cc2OC)cc1OC (stereo not shown) [Example 7, 2-(3,4-dimethoxyphenyl)-1-(2-methoxy-4-(piperidin-1-yl)phenyl)propan-1-one]
IC50 [1]: 1.85 µM

CCOc1ccc(C(=O)C(C)c2ccc(OC)c(OC)c2)c(OC)c1 (stereo not shown) [Example 3, 2-(3,4-dimethoxyphenyl)-1-(4-ethoxy-2-methoxyphenyl)propan-1-one]
IC50 [1]: 11.7 µM

COc1ccc(C(C)C(=O)c2ccc(OC3CCCCC3)cc2OC)cc1OC (stereo not shown) [Example 4, 1-(4-(cyclohexyloxy)-2-methoxyphenyl)-2-(3,4-dimethoxyphenyl)propan-1-one]
IC50 [1]: 2.59 µM

COc1ccc(C(C)C(=O)c2ccc(NCc3ccc(C#N)cc3)cc2OC)cc1OC (stereo not shown) [Example 10]
inhibitory activity against retinal neovascularization by hypoxia [2]: better inhibitory activity against retinal neovascularization by hypoxia than that of the compound of Comparative Example 1 | inhibitory activity against angiogenesis (angiogenesis): better inhibitory activity against angiogenesis than that of the compound of Comparative Example 1 | HIF-1α regulatory activity [3]: better HIF-1α regulatory activity than that of the compound of Comparative Example 1 | IC50 [1]: 0.6 µM | inhibitory activity against HIF-1α (in words) ([1]; comment on Table 2): best inhibitory activity against HIF-1a

COc1cc(N2CCCCC2)ccc1C(=O)C(C)c1ccccc1F (stereo not shown) [Example 15, 2-(2-fluorophenyl)-1-(2-methoxy-4-(piperidin-1-yl)phenyl)propan-1-one]
IC50 [1]: 6.52 µM

CC(C(=O)c1ccc(N2CCCCC2)cc1)c1ccccc1F (stereo not shown) [Example 13, 2-(2-fluorophenyl)-1-(4-(piperidin-1-yl)phenyl)propan-1-one]
IC50 [1]: 2.06 µM

COc1cc(NCc2ccc(C#N)cc2)ccc1C(=O)C(C)c1ccccc1F (stereo not shown) [Example 16, 4-(((4-(2-(2-fluorophenyl)propanoyl)-3-methoxyphenyl)amino)methyl)benzonitrile]
IC50 [1]: 5.28 µM

CC(C(=O)c1ccc(NCc2ccccc2)cc1)c1ccccc1F (stereo not shown) [Example 14, 1-(4-(benzylamino)phenyl)-2-(2-fluorophenyl)propan-1-one]
IC50 [1]: 7.35 µM

2-(3,4-dimethoxyphenyl)-1-(4-(pyrrolidin-1-yl)phenyl)propan-1-one [Example 11]
IC50 [1]: 2.61 µM

COc1ccc(C(=O)C(C)c2ccc(OC)c(OC)c2)c(OC)c1 (stereo not shown) [Example 2, 1-(2,4-dimethoxyphenyl)-2-(3,4-dimethoxyphenyl)propan-1-one]
IC50 [1]: > 15 µM

COc1ccc(C(C)C(=O)c2ccc(N(C)C)cc2OC)cc1OC (stereo not shown) [Example 5, 2-(3,4-dimethoxyphenyl)-1-(4-(dimethylamino)-2-methoxyphenyl)propan-1-one]
IC50 [1]: > 15 µM
